Experimental findings from patent US9035056B2, “Pyrido[4,3-b]indole and pyrido[3,4-b]indole derivatives and methods of use” (Medivation Technologies, Inc., priority 2011, dated 2015) are described below.

For test [1], the target named is T1, rat adrenergic α1B receptor (Rattus norvegicus, UniProt P15823).
T1 construct: rat adrenergic α1B receptor obtained from Wistar Rat liver; from tissue; host or cells: Wistar rat liver
T1 sequence (P15823 1-515): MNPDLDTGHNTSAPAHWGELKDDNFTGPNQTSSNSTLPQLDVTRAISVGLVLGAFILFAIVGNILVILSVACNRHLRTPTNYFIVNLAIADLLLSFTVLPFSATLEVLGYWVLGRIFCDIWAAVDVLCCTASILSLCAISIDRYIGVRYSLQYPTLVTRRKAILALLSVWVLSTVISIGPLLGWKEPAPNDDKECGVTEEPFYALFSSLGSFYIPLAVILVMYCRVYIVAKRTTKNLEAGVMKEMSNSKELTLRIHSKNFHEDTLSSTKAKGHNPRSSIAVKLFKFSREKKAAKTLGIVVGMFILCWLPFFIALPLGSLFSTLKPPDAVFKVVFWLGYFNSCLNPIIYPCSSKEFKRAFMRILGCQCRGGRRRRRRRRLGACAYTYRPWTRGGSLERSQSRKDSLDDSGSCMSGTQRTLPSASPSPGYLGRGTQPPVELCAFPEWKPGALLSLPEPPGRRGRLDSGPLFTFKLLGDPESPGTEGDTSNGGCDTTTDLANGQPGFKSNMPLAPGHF
In words: Adrenergic α1B radioligand binding ([3H]Prazosin). As to conditions: 0.1 μM compound; 0.1 µM. The procedure: To evaluate in radioligand binding assays the activity of compounds of the invention, rat adrenergic α1B receptor obtained from Wistar Rat liver (Garcia-S'ainz, J. et al, Biochem. Biophys. Res. Commun. 186:760, 1992; Michel, A. et al, Br. J. Pharmacol. 98:883, 1989) in a modified Tris-HCl buffer (50 mM Tris-HCl buffer, pH 7.4, 0.5 mM EDTA) was used. Compounds of the invention were incubated with 0.25 nM [^3H]Prazosin for 60 min at 25° C. Non-specific binding was estimated in the presence of 10 μM phentolamine. Receptor proteins were filtered and washed, the filters were then counted to determine [^3H]Prazosin specifically bound. Compounds were screened at 1 μM or lower, using 1% DMSO as vehicle. Biochemical assay results are presented as the percent inhibition of specific binding in Table 3.

Test [2] addresses T2, human recombinant adrenergic α2A receptor (Homo sapiens, UniProt P08913).
T2 construct: expressed in transfected cells; host or cells: insect Sf9 cells
T2 sequence (P08913 1-465): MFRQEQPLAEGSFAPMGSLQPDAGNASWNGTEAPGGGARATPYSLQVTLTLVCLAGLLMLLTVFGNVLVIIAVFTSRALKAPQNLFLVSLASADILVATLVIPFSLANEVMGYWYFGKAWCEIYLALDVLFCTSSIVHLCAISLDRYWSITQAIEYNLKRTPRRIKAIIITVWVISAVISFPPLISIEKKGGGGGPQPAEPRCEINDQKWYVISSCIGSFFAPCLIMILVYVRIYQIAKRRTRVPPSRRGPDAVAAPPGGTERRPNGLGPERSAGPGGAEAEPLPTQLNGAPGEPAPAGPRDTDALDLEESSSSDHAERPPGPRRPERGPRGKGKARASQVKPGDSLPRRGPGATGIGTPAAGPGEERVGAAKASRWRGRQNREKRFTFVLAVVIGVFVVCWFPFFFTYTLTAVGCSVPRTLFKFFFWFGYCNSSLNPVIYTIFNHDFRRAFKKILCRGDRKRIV
Nature of the test: Adrenergic α2A radioligand binding ([3H]MK-912). To be noted: 0.1 μM compound; 0.1 µM. The procedure:
To evaluate in radioligand binding assays the activity of compounds of the invention, human recombinant adrenergic α2A receptor expressed in insect Sf9 cells (Uhlen, S. et al, J. Pharmacol. Exp. Ther. 271:1558, 1994) in a modified Tris-HCl buffer (50 mM Tris-HCl, pH 7.4, 12.5 mM MgCl2, 2 mM EDTA) was used. Compounds of invention were incubated with 1 nM [^3H]MK-912 for 60 min at 25° C. MK-912 is (2S-trans)-1,3,4,5′,6,6′,7,12b-octahydro-1′,3′-dimethyl-spiro[2H-benzofuro[2,3-a]quinolizine-2,4′(1′H)-pyrimidin]-2′(3′H)-one hydrochloride Non-specific binding was estimated in the presence of 10 μM WB-4101 (2-(2,6-Dimethoxyphenoxyethyl)aminomethyl-1,4-benzodioxane hydrochloride). Receptor proteins were filtered and washed, the filters were then counted to determine [^3H]MK-912 specifically bound. Compounds were screened at 1 μM or lower, using 1% DMSO as vehicle. Biochemical assay results are presented as the percent inhibition of specific binding in Table 3.

Test [3] has as its target T3, human recombinant adrenergic α2B receptor (Homo sapiens, UniProt P18089).
T3 construct: expressed in transfected cells; host or cells: CHO-K1
T3 sequence (P18089 1-450): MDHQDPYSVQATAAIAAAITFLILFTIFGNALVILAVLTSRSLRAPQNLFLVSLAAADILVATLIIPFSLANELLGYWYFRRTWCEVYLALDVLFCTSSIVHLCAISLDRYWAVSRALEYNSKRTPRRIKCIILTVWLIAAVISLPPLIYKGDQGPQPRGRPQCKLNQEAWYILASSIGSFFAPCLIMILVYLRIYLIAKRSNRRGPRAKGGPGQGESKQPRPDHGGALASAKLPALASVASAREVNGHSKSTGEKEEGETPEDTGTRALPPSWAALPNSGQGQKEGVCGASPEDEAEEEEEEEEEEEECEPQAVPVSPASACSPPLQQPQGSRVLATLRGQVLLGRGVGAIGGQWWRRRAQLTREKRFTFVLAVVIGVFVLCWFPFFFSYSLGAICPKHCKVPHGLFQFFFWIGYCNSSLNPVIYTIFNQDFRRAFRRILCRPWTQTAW
Nature of the test: Adrenergic α2B radioligand binding ([3H]Rauwolscine). To be noted: 0.03 μM compound; 0.03 µM. The procedure: To evaluate in radioligand binding assays the activity of compounds of the invention, human recombinant adrenergic α2B receptor expressed in Chinese hamster ovary (CHO) K1 cells (Uhlen, S. et al, Eur. J. Pharmacol. 343(1):93, 1998) in a modified Tris-HCl buffer (50 mM Tris-HCl, pH 7.4, 12.5 mM MgCl2, 1 mM EDTA, 0.2% BSA) was used. Compounds of the invention were incubated with 2.5 nM [^3H]Rauwolscine for 60 min at 25° C. Non-specific binding was estimated in the presence of 10 μM Prazosin. Receptor proteins were filtered and washed, the filters were then counted to determine [^3H]Rauwolscine specifically bound. Compounds were screened at 1 μM or lower, using 1% DMSO as vehicle. Biochemical assay results are presented as the percent inhibition of specific binding in Table 3.

The target in test [4] is T4, human recombinant histamine H1 receptor (Homo sapiens, UniProt P35367).
T4 construct: expressed in transfected cells; host or cells: CHO-K1
Nature of the test: Histamine H1 radioligand binding ([3H]Pyrilamine). To be noted: 0.1 μM compound; 0.1 µM. The procedure:
To evaluate in radioligand binding assays the activity of compounds of the invention, human recombinant histamine H1 receptor expressed in Chinese hamster ovary (CHO) K1 cells (De Backer, M. et al, Biochem. Biophys. Res. Comm. 197(3):1601, 1993) in a modified Tris-HCl buffer (50 mM Tris-HCl, pH 7.4, 2 mM MgCl2, 100 mM NaCl, 250 mM Sucrose) was used. Compounds of the invention were incubated with 1.2 nM [^3H]Pyrilamine for 180 min at 25° C. Non-specific binding was estimated in the presence of 1 μM Pyrilamine. Receptor proteins were filtered and washed, the filters were then counted to determine [^3H]Pyrilamine specifically bound. Compounds were screened at 1 μM or lower, using 1% DMSO as vehicle. Biochemical assay results are presented as the percent inhibition of specific binding in Table 3.

T4 sequence (P35367 whole entry): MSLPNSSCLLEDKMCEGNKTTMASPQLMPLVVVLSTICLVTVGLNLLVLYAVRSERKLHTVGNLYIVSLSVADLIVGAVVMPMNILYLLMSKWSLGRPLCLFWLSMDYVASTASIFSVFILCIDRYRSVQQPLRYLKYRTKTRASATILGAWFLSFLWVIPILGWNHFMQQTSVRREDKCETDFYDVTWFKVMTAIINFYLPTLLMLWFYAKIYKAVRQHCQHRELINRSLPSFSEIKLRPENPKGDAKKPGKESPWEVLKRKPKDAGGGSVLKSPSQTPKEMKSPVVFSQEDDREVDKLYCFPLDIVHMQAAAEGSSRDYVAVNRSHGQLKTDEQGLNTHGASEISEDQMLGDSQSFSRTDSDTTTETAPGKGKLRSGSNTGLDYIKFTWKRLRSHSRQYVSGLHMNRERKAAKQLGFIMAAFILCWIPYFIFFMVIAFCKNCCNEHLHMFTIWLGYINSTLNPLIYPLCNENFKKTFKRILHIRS

For `Cc1ccc2c(c1)c1c(n2CC2(O)CCc3ccccc32)CCN(C)C1` (single isomer, unassigned) [ii-111a], the “Percentage inhibition of ligand binding, Adrenergic α1B” value (“Percentage inhibition … Adrenergic α1B” for short) in test [1] is 94%. The “Percentage inhibition of ligand binding, Adrenergic α2A” value (“Percentage inhibition … Adrenergic α2A” for short) in test [2] is 45%. For the same compound, in test [3], the “Percentage inhibition of ligand binding, Adrenergic α2B” value (“Percentage inhibition … Adrenergic α2B” for short) is listed as 76%.
With `Cc1ccc2c(c1)c1c(n2CC2(O)CCCc3ccncc32)CCN(C)C1` (single isomer, unassigned) [ii-113b], in test [4], the “Binding data (Percentage inhibition) Histamine H1 (0.1 μM)” value came out at 6%. Besides, the “Percentage inhibition … Adrenergic α1B” value in test [1] came out at 82%. Also, the “Percentage inhibition … Adrenergic α2A” value in test [2] was found to be 8%. In test [3], the “Percentage inhibition … Adrenergic α2B” value came out at 68%.
On to `Cc1ccc2c(c1)c1c(n2CC2(O)CCc3ccccc32)CCN(C)C1` (single isomer, unassigned) [ii-111b], for which the “Percentage inhibition … Adrenergic α1B” value in test [1] is 51%. Also, the “Percentage inhibition … Adrenergic α2A” value in test [2] is reported as 22%. Moreover, in test [3], the “Percentage inhibition … Adrenergic α2B” value is listed as 0%.
